From patent US6376753B1, “PURIFIED CYTOCHROME P450 POLYPEPTIDE CYP76B1 FROM HELIANTHUS TUBEROSUS AND ITS APPLICATIONS AS BIOCATALYST IN PARTICULAR FOR THE DEGRADATION OF ENVIRONMENTAL POLLUTANTS AND FOR ALTERING THE RESISTANCE OF PLANTS SENSITIVE TO PHENYLUREA FAMILY OF HERBICIDES” (priority 1997, dated 2002)

Tests used:
control yeast microsomes = assay: Metabolism in control yeast microsomes (void plasmid pYeDP60); format: biochemical, Saccharomyces cerevisiae; conditions: NADPH
CYP76B1 [1] = target: T1, CYP76B1 (Helianthus tuberosus, UniProt O23976); assay: CYP76B1-dependent metabolism (O-/N-dealkylation) in microsomes of transformed yeast; conditions: for ECOD activity: Transformed yeast W(R); for Activity: + NADPH; for turnover of the dealkylation: for phenylureas first dealkylation
T1 sequence (O23976 1-490): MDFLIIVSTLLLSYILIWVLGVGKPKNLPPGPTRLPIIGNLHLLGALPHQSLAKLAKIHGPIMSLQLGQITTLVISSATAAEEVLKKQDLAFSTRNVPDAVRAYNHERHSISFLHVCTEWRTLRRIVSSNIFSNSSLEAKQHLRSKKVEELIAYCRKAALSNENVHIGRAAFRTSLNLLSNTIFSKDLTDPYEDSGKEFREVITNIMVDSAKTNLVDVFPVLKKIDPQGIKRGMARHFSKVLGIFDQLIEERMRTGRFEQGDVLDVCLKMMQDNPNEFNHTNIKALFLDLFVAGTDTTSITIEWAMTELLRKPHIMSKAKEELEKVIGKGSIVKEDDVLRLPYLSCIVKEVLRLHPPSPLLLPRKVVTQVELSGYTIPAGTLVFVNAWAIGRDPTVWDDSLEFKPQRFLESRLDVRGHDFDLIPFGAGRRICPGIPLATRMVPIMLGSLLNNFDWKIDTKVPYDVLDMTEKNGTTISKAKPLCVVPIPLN
Procedure: BamHI and EcoRI sites were introduced by PCR just upstream of the ATG and downstream of the stop codon of the CYP76B1 coding sequence, using the primers 5′-[…] (sense) 5′-[…] (reverse) (SEQ ID NO 3 and SEQ ID NO 4 respectively). The PCR mixture was preheated for 2 min at 92° C. before addition of 1 unit of Pfu DNA polymerase (Stratagene). After 3 min additional heating at 92° C., 30 cycles of amplification were carried out as follows 1 min denaturation at 92° C., 1 min annealing at 52° C., 2 min extension at 72° C. The reaction was completed by 10 min extension at 72° C. After BamHI/EcoRI digestion, the 1470 bp coding sequence was inserted into the vector pYeDP60 (32). Transformation of Saccharomyces cerevisiae W(R), WAT11 and WAT21, and yeast growth were conducted according to Pompon et al. (32). Yeast microsomes were prepared as described in Pierrel et al. (33) with addition of 1% SAB, 2 mM β-mercaptoethanol, 10 mM sodium disulfite and 1 mM PMSF to the extraction buffer. When indicated, 0.5 mM δ-aminolevulinic acid methyl ester (Sigma) was added to the induction medium, or cells were stored at 4° C. for 24 h before preparation of the microsomes.
(§1) Spectrophotometric measurements of P450 content and substrate binding were performed as in (Gabriac et al., 1991) and SDS-PAGE was performed as in Gabriac et al. (34). Gels were stained with Coomassie Blue R-250. Alkoxycoumarins and alkoxyresorufins O-dealkylation was measured by fluorometry (Werck-Reichhart et al., 1990). The data are means ± S.D. of triplicates.
The conversion of other molecules was assayed by TLC or HPLC analysis of polar metabolites formed from radiolabeled compounds (Cabello-Hurtado et al., 1998a, b). NADPH-cytochrome c reductase was assayed according to (Benveniste et al., 1986). Kinetic data were fitted using the nonlinear regression program […] (Duggleby, 1984).
10 μL of non-immune serum or of serum raised against purified ECOD fraction were preincubated 2 min at room temperature with 10 μL of microsomes before addition of the reaction mix. n.d.: not detectable.
Conversion was estimated from the sum of the two polar metabolites detected after TLC analysis. Data are means + S.D. of two to four determinations. n.d.: not detected.
CYP76B1 concentrations in the MCOD, ECOD, MROD and EROD fluorometric assays were 1.5 nM or 2.1 nM, depending on the coexpressed ATR1 or yeast reductases. In the CTUDM assays, CYP76B1 concentrations were 1.7 nM (ATR1) and 8 nM (yeast), respectively. It was 12 nM for the determination of the catalytic parameters of monodemethyl-CTUDM, and 1.7 nM (ATR1) or 20 nM (yeast) in the IPUDM assays. Products were quantified by direct TLC analysis of 100 μL of the acidified incubation medium after 6 min incubation at 30° C. for the CTUDM and IPUDM assays, and after 9 min incubation for the monodemethyl-CTUDM.

[2] = tested on: microsomes from aminopyrine-induced H. tuberosus tuber tissues; assay: ECOD activity in microsomes from aminopyrine-induced tuber tissues; format: biochemical, Helianthus tuberosus
Description: Gels were stained with Coomassie Blue R-250. […] The data are means ± S.D. of triplicates.
Table 1: NADPH- and cumene hydroperoxide-dependent ECOD activity in microsomes from aminopyrine-induced H. tuberosus tuber tissues and in microsomes from control and CYP76B1-transformed yeast. Immunoinhibition by anti-ECOD antibodies.

CYP76B1 transcripts [3] = tested on: CYP76B1 transcripts
[4] = tested on: 7-methoxyresorufin O-dealkylase activity; assay: Induction of 7-methoxyresorufin O-demethylase activity in tuber slices; format: cell-based, Helianthus tuberosus; conditions: 48 hours of treatment
Procedure: Slices of dormant tuber of Helianthus tuberosus were placed under survival conditions in oxygenated distilled water and stirred with a current of compressed air in the presence of various metals or organic compounds (effectors).
A control was performed with DMSO alone.

[5] = tested on: cotton seedling hypocotyl microsomes; conditions: read-out: Km for demethylation; cited from earlier work
CYP76B1 [6] = target: T1, CYP76B1; assay: biochemical
Procedure: as §1
The binding of substrates into the catalytic site of a P450 usually induces a shift of its maximum of absorbance, redox potential and iron spin state (Raag and Poulos, 1989) resulting from the displacement of the water sixth ligand of the heme iron. It is easily detected by differential spectrophotometry as a so-called type I spectrum with a peak at 390 nm and a trough at 420 nm (Jefcoate, 1978). The variation of the differential absorbance ΔA390-420 versus substrate concentration allows the calculation of an apparent dissociation constant (Ks). A high ΔAmax induced by the ligand is usually an indication of correct positioning for catalysis.
CYP76B1 was 60 nM in the assays. Difference spectra were recorded after the addition of increasing concentrations of ligands to the sample cuvette. An equal volume of the herbicide solvent (DMSO) was added to the reference. Ks and ΔAmax at saturating ligand concentration were calculated from the double-reciprocal plots of ΔA(390-420 nm) versus substrate concentrations.

CYP76B1 transcripts [7] = conditions: tuber tissues aged 48 h with the chemical
CYP73A1 = target: T2, CYP73A1 (Helianthus tuberosus, UniProt Q04468); conditions: chlortoluron hydroxylation; cited from earlier work
T2 construct: host or cells: yeast-expressed, according to b197
T2 sequence (Q04468 1-505): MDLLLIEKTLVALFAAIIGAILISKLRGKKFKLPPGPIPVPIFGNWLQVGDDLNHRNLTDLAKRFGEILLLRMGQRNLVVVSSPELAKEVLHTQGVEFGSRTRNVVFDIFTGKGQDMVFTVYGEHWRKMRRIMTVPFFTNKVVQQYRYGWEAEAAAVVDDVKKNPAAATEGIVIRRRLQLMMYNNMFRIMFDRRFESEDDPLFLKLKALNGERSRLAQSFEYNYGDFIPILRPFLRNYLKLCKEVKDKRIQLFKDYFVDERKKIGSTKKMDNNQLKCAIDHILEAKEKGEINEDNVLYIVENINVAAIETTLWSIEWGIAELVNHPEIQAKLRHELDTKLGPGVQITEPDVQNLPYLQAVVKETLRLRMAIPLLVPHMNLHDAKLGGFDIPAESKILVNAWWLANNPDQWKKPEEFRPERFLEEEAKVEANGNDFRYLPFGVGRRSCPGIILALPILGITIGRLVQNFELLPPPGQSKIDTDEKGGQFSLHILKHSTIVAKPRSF

[8] = substrate: Cc1ccc(NC(=O)N(C)C)cc1Cl; assay: purified protein, by the assay type
[9] = substrate: CCOc1ccc2ccc(=O)oc2c1; assay: purified protein, by the assay type
[10] = substrate: CC(C)c1ccc(NC(=O)N(C)C)cc1; assay: purified protein, by the assay type
[11] = substrate: CCOc1ccc2nc3ccc(=O)cc-3oc2c1; assay: purified protein, by the assay type; conditions: other: coexpressed yeast reductase (W(R))
[12] = substrate: COc1ccc2ccc(=O)oc2c1; assay: purified protein, by the assay type
[13] = 50 μM NADPH, 400 μM 7-ethoxycoumarin
[14] = other: coexpressed reductase ATR1 (WAT11)
[15] = other: coexpressed yeast reductase (W(R))

## CCOc1ccc2ccc(=O)oc2c1 [7-ethoxycoumarin]
Control yeast microsomes
  ECOD activity: No activity
CYP76B1 [1]; ECOD, W(R) yeast microsomes, NADPH
  Vmax: 600 pkat.pmole^−1 P450
CYP76B1 [1]; [13]
  ECOD activity: 8.4 ± 0.05 pkat · mg^−1 protein
CYP76B1 [1]; 125 μM cumene hydroperoxide
  ECOD activity: no activity
CYP76B1 [1]; NADPH + anti-ECOD antibodies
  ECOD activity: 7.5 ± 0.2 pkat · mg^−1 protein
CYP76B1 [1]; W(R) strain
  Activity: 8.4 pkat mg-1 protein
  turnover of the dealkylation: 10 min⁻¹
CYP76B1 [1]; WAT11 strain
  Activity: 15.9 pkat mg-1 protein
  turnover of the dealkylation: 30 min⁻¹
[2]; [13]
  ECOD activity: 5.2 ± 0.1 pkat · mg^−1 protein
[2]; 125 μM cumene hydroperoxide
  ECOD activity: 2.5 ± 0.09 pkat · mg^−1 protein
[2]; NADPH + anti-ECOD antibodies
  ECOD activity: 2.6 ± 0.1 pkat · mg^−1 protein

## Cc1c(N(C)C)c(=O)n(-c2ccccc2)n1C [aminopyrine]
CYP76B1 transcripts [3]
  fold more transcripts coding for CYP76B1 than for CYP73A1 or CYP81B1: 2 to 6 fold
[4]
  induction of 7-methoxyresorufin O-dealkylase activity: very strongly induced

## CN(C)C(=O)Nc1ccc(Cl)c(Cl)c1 [Diuron]
[5]
  Km: 15 µM
CYP76B1 [6]
  Kd: 20 µM

## CCC1(c2ccccc2)C(=O)NC(=O)NC1=O.[Na] [phenobarbital, 5-ethyl-5-phenyl-barbituric acid, sodium salt]
[4]
  induction of 7-methoxyresorufin O-dealkylase activity: very strongly induced
CYP76B1 transcripts [7]
  effect on CYP76B1 mRNA accumulation / expression: strongly induced
  level of CYP76B1 transcripts relative to the control: 6 ×

## [Cl][Mn][Cl] [manganese, MnCl2]
CYP76B1 transcripts [3]
  fold more transcripts coding for CYP76B1 than for CYP73A1 or CYP81B1: 2 to 6 fold
[4]
  induction of 7-methoxyresorufin O-dealkylase activity: very strongly induced

## Cc1ccc(NC(=O)N(C)C)cc1Cl [Chlortoluron, N-(3-chloro-p-tolyl)-N′,N′-dimethylurea]
CYP73A1
  reaction turnover (hydroxylation): 0.014 min⁻¹
CYP76B1 [1]; W(R) strain
  Activity: 1223 pkat mg-1 protein
  turnover of the dealkylation: about 376 min^−1
CYP76B1 [1]; WAT11 strain
  Activity: 4258 pkat mg-1 protein
  turnover of the dealkylation: 803 min⁻¹
CYP76B1 [1]; coexpressed reductase ATR1 (WAT11)
  Kcat: 13.4 s⁻¹
CYP76B1 [1]; coexpressed yeast reductase (W(R))
  Kcat: 6.27 s⁻¹
CYP76B1 [1]; second demethylation, slow step for complete detoxification
  kCat of the second demethylation: 0.767 s⁻¹
CYP76B1 [6]
  Kd: 24 µM
CYP76B1 [6]; CYP76B1 60 nM, at saturating ligand concentration
  ΔAmax × 10^−3: 5.1 × 10^−3

B1: CYP76B1 (Helianthus tuberosus) (protein)
chain: MDFLIIVSTLLLSYILIWVLGVGKPKNLPPGPTRLPIIGNLHLLGALPHQSLAKLAKIHGPIMSLQLGQITTLVISSATAAEEVLKKQDLAFSTRNVPDAVRAYNHERHSISFLHVCTEWRTLRRIVSSNIFSNSSLEAKQHLRSKKVEELIAYCRKAALSNENVHIGRAAFRTSLNLLSNTIFSKDLTDPYEDSGKEFREVITNIMVDSAKTNLVDVFPVLKKIDPQGIKRGMARHFSKVLGIFDQLIEERMRTGRFEQGDVLDVCLKMMQDNPNEFNHTNIKALFLDLFVAGTDTTSITIEWAMTELLRKPHIMSKAKEELEKVIGKGSIVKEDDVLRLPYLSCIVKEVLRLHPPSPLLLPRKVVTQVELSGYTIPAGTLVFVNAWAIGRDPTVWDDSLEFKPQRFLESRLDVRGHDFDLIPFGAGRRICPGIPLATRMVPIMLGSLLNNFDWKIDTKVPYDVLDMTEKNGTTISKAKPLCVVPIPLN
[8]; [14]
  Km: 179 µM
[8]; [15]
  Km: 202 µM
[9]; [14]
  Km: 60 µM
  kcat: 0.5 s⁻¹
  kcat/Km: 8330 M⁻¹ s⁻¹
[9]; [15]
  Km: 74 µM
  kcat: 0.167 s⁻¹
  kcat/Km: 2170 M⁻¹ s⁻¹
[10]; [14]
  Km: 289 µM
[10]; [15]
  Km: 361 µM
[11]
  Km: 0.49 µM
  kcat: 0.1 s⁻¹
  kcat/Km: 200000 M⁻¹ s⁻¹
[12]; [14]
  Km: 808 µM
  kcat: 0.517 s⁻¹
  kcat/Km: 667 M⁻¹ s⁻¹
[12]; [15]
  Km: 899 µM
  kcat: 0.217 s⁻¹
  kcat/Km: 167 M⁻¹ s⁻¹
